This passage reports inhibition and Ki results from publication PMC11121535, “Inhibition of Shikimate Kinase from Methicillin-Resistant Staphylococcus aureus by Benzimidazole Derivatives. Kinetic, Computational, Toxicological, and Biological Activity Studies” (International Journal of Molecular Sciences, 2024).

Assay [1] concerns the target T1, shikimate kinase (SaSK) (Staphylococcus aureus, UniProt Q5HFM1).
T1 construct: gene aroK
T1 sequence (Q5HFM1 1-174): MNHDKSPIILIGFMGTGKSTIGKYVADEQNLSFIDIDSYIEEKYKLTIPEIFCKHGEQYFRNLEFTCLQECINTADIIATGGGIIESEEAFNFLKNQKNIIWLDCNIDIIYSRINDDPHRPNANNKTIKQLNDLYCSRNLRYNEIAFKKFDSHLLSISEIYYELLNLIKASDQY
Description: biochemical. Further details: Coupled PK/LDH assay of purified SaSK, NADH oxidation at 340 nm, fixed-concentration inhibition screen, 25 °C. The method, then: The activity of purified SaSK was measured by a coupled assay described by Favela et al., [67] following the oxidation of NADH to NAD, monitored at 340 nm using an Hp Agilent 8453 UV-VIS spectrophotometer. The assay mixture contained 100 mM Tris-HCl pH 7.6, 5 mM MgCl2, 100 mM KCl, 2 mM ATP, 1 mM shikimate, 1 mM phosphoenolpyruvate, 6 μg/mL pyruvate kinase, 6 μg/mL lactate dehydrogenase, 0.25 mM NADH, 10% of dimethyl sulfoxide (DMSO), and 70 ng of purified SaSK protein. All assays were performed in triplicate at 25 °C. It is important to mention that at the percentage of DMSO used, the activity of the enzyme was not affected. The primary screening of the benzimidazole compound library was carried out at a fixed concentration of 200 µM or at the maximum solubility possible for compounds with poor solubility in assay conditions. All the compounds were dissolved in DMSO.

In assay [2] the target is T2, shikimate kinase (SaSK) (Staphylococcus aureus, UniProt Q5HFM1).
T2 construct: gene aroK
As to the kind of experiment: pyruvate kinase/lactate dehydrogenase coupled assay with purified SaSK; Lineweaver-Burk (Ki […] vs shikimate, […] vs ATP). The class given is biochemical.

For assay [3], the target named is T2, shikimate kinase (SaSK). Description: coupled enzyme assay, purified SaSK, % inhibition at […]. The class given is biochemical.
Assay [4] addresses T2, shikimate kinase (SaSK). As to the kind of experiment: pyruvate kinase/lactate dehydrogenase coupled assay with purified SaSK; Lineweaver-Burk (Ki […] vs shikimate, […] vs ATP). The class given is biochemical. This is another data set of the same source.

SMILES strings stand for the structures. Read-outs that look alike come from different tables or passages of the source.

Broadly, the inhibition is the share of the control response that was lost under treatment. What is called Ki is a measure of affinity in units of concentration, obtained from inhibition or displacement. High values mean lower affinity, low ones higher affinity. Consider `Cn1c(C(F)(F)F)nc2cc(C(=O)NN=Cc3ccc([N+](=O)[O-])o3)ccc21` [C2, 1-Methyl-N′-[(5-nitrofuran-2-yl)methylene]-2-(trifluoromethyl)-1H-benzimidazole-5-carbohydrazide], for which the inhibition at 100 µM in assay [1] came to 60%. In addition, affinity in assay [2] was put at a Ki of 50 µM.

Regarding `O=C(NN=Cc1ccc([N+](=O)[O-])o1)c1ccc2[nH]c(C(F)(F)F)nc2c1` [C3, N′-[(5-Nitrofuran-2-yl)methylene]-2-(trifluoromethyl)-1H-benzimidazole-5-carbohydrazide], the inhibition at 100 µM in assay [3] amounted to 43%. Consider `O=C(NN=Cc1ccc([N+](=O)[O-])o1)c1ccc2[nH]cnc2c1` [C1, N′-[(5-Nitrofuran-2-yl)methylene]-1H-benzimidazole-5-carbohydrazide], for which the inhibition at 70 µM in assay [1] amounted to 50%. Moreover, in assay [4], the affinity, expressed as Ki, was 48 µM.

On to `Cn1cnc2cc(C(=O)NN=Cc3ccc([N+](=O)[O-])o3)ccc21` [C4, 1-Methyl-N′-[(5-nitrofuran-2-yl)methylene]-1H-benzimidazole-5-carbohydrazide], for which, in assay [3], testing at 100 µM gave an inhibition of 40%.
